“Also recorded” adds a separate entry of the source. Read-outs that look alike come from different tables or passages of the source. Marks after values point to notes of the source that are not given here.
What was measured:
[1] = biological target: H1N1 Hemagglutinin (Influenza A virus, UniProt P03452); assay: SPR affinity toward immobilized H1N1 hemagglutinin; format: binding, influenza type H1N1 (A/Puerto Rico/8/34); settings: for Kd: KD(app)
Procedure: (§1) SPR experiments were conducted using a BIAcore S200 instrument (Cytiva, Marlborough, MA, USA) employing a CM5 chip with a carboxymethyldextran surface (Cytiva, USA). Hemagglutinins (ThermoFisher Scientific, Invitrogen, Waltham, MA, USA) from influenza type H3N2 (A/Aichi/2/1968) and H1N1 (A/Puerto Rico/8/34), as well as neuraminidase (Invitrogen, USA) from H1N1 (A/California/04/2009), were immobilized on the chip surface following the standard amine coupling procedure outlined in the manufacturer’s instructions. This immobilization process was performed at a flow rate of 10 μL/min using PBST as the running buffer. The chip surface was initially activated using an N-ethyl-N-(3-dimethylaminopropyl)carbodiimide/N-hydroxysuccinimide solution. Subsequently, 50 μg/mL solutions of individual proteins in 10 mM sodium acetate, pH 5, were injected into channels 2, 3, and 4, respectively. To block any unreacted groups, all channels were treated with 1 M ethanolamine, resulting in a final response of 4500 RU for HAs and 2700 RU for neuraminidase. Channel 1 was activated and blocked in the same manner, without the injection of any protein, serving as a blank.
(§2) Tested compounds in a PBST working buffer (20 mM Na-phosphate, 150 mM NaCl, pH 7.4, 0.005% Tween 20, 5% DMSO) were injected into the chip at a flow rate of 30 μL/min at 25 °C. The injection duration was 3 min, followed by a 10 min buffer flow to facilitate spontaneous dissociation. Each compound was injected as a two-fold dilution series within a concentration range of 0.78–800 μM (2.44–2500 μM for sialic acid). After each compound concentration series, five buffer injections were performed to ensure complete dissociation. To determine the apparent KD toward the immobilized proteins, the steady-state responses of the blank-subtracted curves from each replicate were fitted using a single-site binding model.
(§3) In experiments conducted in a DMSO-free buffer (20 mM Na-phosphate, 150 mM NaCl, pH 7.4, 0.005% Tween 20), each replicate was followed by a two-fold dilution series of DMSO, matching the DMSO concentration in the compound solutions. In this case, the steady-state response of the blank-subtracted curve was corrected by the corresponding blank-subtracted DMSO steady-state response. The final values from each replicate were fitted using a single-site binding model using Origin 7 (OriginLab Corporation, Northampton, MA, USA).
(§4) For all experiments, the final KD(app) and Rmax values, along with their standard deviations, were obtained through statistical analysis based on three replicates.

[2] = tested on: Madin-Darby canine kidney (MDCK) cells; settings: dog, 3 days
[3] = biological target: H3N2 Hemagglutinin (Influenza A virus, UniProt P03437); assay: SPR affinity toward immobilized H3N2 hemagglutinin; format: binding, influenza type H3N2 (A/Aichi/2/1968); settings: for Kd: KD(app)
Procedure: as §1, §2, §3, §4

[4] = tested on: IAV (A/H3N2); assay: CPE reduction assay, influenza A/H3N2 in MDCK cells; format: cell-based, influenza A virus A/H3N2 (A/Victoria/361/11 or A/HK/7/87); settings: Influenza A virus, H3N2, 72 h
Procedure: (§5) The process of CPE reduction assay for the influenza virus was described previously. The virus strains were A/Virginia/ATCC3/2009, A/PR/8 (A/H1N1), A/Victoria/361/11, A/HK/7/87 (A/H3N2), and B/Ned/537/05 (IBV). On day 0, Madin-Darby canine kidney (MDCK) cells in 96-well plates were infected with influenza virus at a multiplicity of infection (MOI) of 0.0004 plaque forming units (PFU) per cell, and that was incubated at 35 °C for 3 days. After the third day, virus-induced CPE and compound cytotoxicity were scored by microscopy, and the data were confirmed by formazan-based MTS cell viability assay (CellTiter 96® AQueous One Solution Cell Proliferation Assay from Promega, Madison, WI, USA). […] Compound cytotoxicity was expressed as the concentration of the compound causing minimal changes in cell morphology (MCC) and 50% cytotoxic concentration (CC50) based on the MTS assay.

[5] = tested on: IAV (A/H1N1); assay: CPE reduction assay, influenza A/H1N1 in MDCK cells; format: cell-based, influenza A virus A/H1N1 (A/Virginia/ATCC3/2009 or A/PR/8); settings: Influenza A virus, H1N1, 72 h
Procedure: as §5

[6] = tested on: IBV; assay: CPE reduction assay, influenza B in MDCK cells; format: cell-based, influenza B virus (B/Ned/537/05); settings: Influenza B virus, 72 h
Procedure: as §5

[7] = biological target: H1N1 Neuraminidase (Influenza A virus, UniProt C3W5S3); assay: SPR affinity toward immobilized H1N1 neuraminidase; format: binding, influenza H1N1 (A/California/04/2009); settings: PBST with 5% DMSO, 25 °C
Procedure: as §1, §2, §4

[8] = in vitro; settings: dog
[9] = tested on: influenza A strains; assay: Anti-influenza activity against influenza A strains (H1N1 and H3N2) in MDCK cells; format: cell-based, influenza A virus (H1N1 and H3N2 types); settings: for activity against influenza A strains (in words): MDCK cells, H1N1 and H3N2; for ratio of CC50 to EC50 (selectivity): both determined by MTS assay, at best
Procedure: as §5

[10] = tested on: hemagglutinin; settings: cited from earlier work
[11] = Dynamic light scattering of aggregates; settings: RSD of 3 measurements in brackets
[12] = tested on: viral neuraminidase; settings: cited from earlier work
[13] = H1N1 hemagglutinin, absence of DMSO, DMSO-free running buffer
[14] = H3N2 hemagglutinin, absence of DMSO, DMSO-free running buffer
[15] = MTS cell viability assay, day 3, read-out: Antiviral EC50, IAV (A/H3N2), MTS
[16] = microscopic scoring of cytopathic effect, day 3, read-out: Antiviral EC50, IAV (A/H3N2), CPE
[17] = MTS cell viability assay, day 3, read-out: Antiviral EC50, IAV (A/H1N1), MTS
[18] = microscopic scoring of cytopathic effect, day 3, read-out: Antiviral EC50, IAV (A/H1N1), CPE
[19] = MTS cell viability assay, day 3, read-out: Antiviral EC50, IBV, MTS
[20] = microscopic scoring of cytopathic effect, day 3, read-out: Antiviral EC50, IBV, CPE
[21] = H1N1 Hemagglutinin, PBST with 5% DMSO, 25 °C, steady-state single-site fit
[22] = H3N2 Hemagglutinin, PBST with 5% DMSO, 25 °C, steady-state single-site fit
[23] = 0.1 mg/mL (diluted with water), 25 °C
[24] = 1 mg/mL in water/DMSO 9:1, 25 °C

Sequence of H1N1 Hemagglutinin (P03452 18-565): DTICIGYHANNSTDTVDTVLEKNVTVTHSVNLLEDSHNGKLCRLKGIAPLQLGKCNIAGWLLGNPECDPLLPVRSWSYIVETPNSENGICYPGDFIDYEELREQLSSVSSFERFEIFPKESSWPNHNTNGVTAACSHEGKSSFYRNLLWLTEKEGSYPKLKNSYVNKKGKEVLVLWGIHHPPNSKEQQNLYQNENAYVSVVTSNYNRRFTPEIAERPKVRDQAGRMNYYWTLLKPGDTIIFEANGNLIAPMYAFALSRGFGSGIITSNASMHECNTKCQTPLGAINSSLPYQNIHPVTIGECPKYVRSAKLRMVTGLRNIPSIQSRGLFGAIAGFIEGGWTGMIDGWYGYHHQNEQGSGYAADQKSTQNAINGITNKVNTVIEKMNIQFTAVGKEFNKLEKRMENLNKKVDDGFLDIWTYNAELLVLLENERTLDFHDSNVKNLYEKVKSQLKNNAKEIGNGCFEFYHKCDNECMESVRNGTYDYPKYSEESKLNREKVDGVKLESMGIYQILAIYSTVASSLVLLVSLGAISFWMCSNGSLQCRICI

SMILES	Cytotoxicity MCC (minimum cytotoxic concentration) [2]	EC50 [4, 15]	EC50 [4, 16]	EC50 [5, 17]	EC50 [5, 18]	EC50 [6, 19]	EC50 [6, 20]	CC50 [8]	activity against influenza A strains (in words) [9]	also measured
CCCCCCCCOCC1OC(CCCSC2(C(=O)O)CC(O)C(NC(C)=O)C(C(O)C(O)CO)O2)C=CC1OCCCCCCCC (centres unmarked) [Compound 18b]	63 ± 19 µM	6.2 ± 3 µM	4.8 ± 1 µM	23 µM	25 µM	> 100 µM	> 100 µM	32 ± 8 µM	effective; also recorded: moderate effect	Rmax, H1N1 hemagglutinin, absence of DMSO ([1]; DMSO-free running buffer): 783 ± 8 RU; Kd [1, 13]: 286 ± 19 µM; Rmax, H3N2 hemagglutinin, absence of DMSO ([3]; DMSO-free running buffer): 925 ± 23 RU; Kd [3, 14]: 357 ± 23 µM; Rmax, H1N1 Neuraminidase [7]: 166 ± 53 RU; ratio of CC50 to EC50 (selectivity) [9]: ≤ 5 factor
CCCCCCOCC1OC(CCCSC2(C(=O)O)CC(O)C(NC(C)=O)C(C(O)C(O)CO)O2)C=CC1OCCCCCC (centres unmarked) [Compound 18c]	100 ^d µM	> 100 µM	> 100 µM	> 100 µM	> 100 µM	> 100 µM	> 100 µM	> 100 µM		
CO[C@]1(C(=O)O)C[C@H](O)[C@@H](NC(C)=O)[C@H]([C@H](O)[C@H](O)CO)O1 [Methyl α-glycoside of sialic acid]										binding to hemagglutinin (in words) [10]: bind weakly
CCCCCCOCC1OC(OCCOCCOCCOCCOCCCSC2(C(=O)O)CC(O)C(NC(C)=O)C(C(O)C(O)CO)O2)C=CC1OCCCCCC (centres unmarked) [Compound 23b]	>100 µM	> 100 µM	> 100 µM	> 100 µM	> 100 µM	> 100 µM	> 100 µM	> 100 µM	ineffective	
CCCCCCCCOCC1OC(OCCOCCOCCOCCOCCCSC2(C(=O)O)CC(O)C(NC(C)=O)C(C(O)C(O)CO)O2)C=CC1OCCCCCCCC (centres unmarked) [Compound 23a]	40 ^d µM	> 100 µM	> 100 µM	> 100 µM	> 100 µM	> 100 µM	> 100 µM	54 µM	no anti-influenza effect	Rmax, H1N1 hemagglutinin, absence of DMSO ([1]; DMSO-free running buffer): 197 ± 24 RU; Kd [1, 21]: 6220 ± 4040 µM; Kd [1, 13]: 106 ± 36 µM; Rmax, H1N1 Hemagglutinin ([1]; PBST with 5% DMSO, 25 °C): 505 ± 275 RU; Rmax, H3N2 hemagglutinin, absence of DMSO ([3]; DMSO-free running buffer): 200 ± 23 RU; Kd [3, 22]: 1220 ± 737 µM; Kd [3, 14]: 134 ± 48 µM; Rmax, H3N2 Hemagglutinin ([3]; PBST with 5% DMSO, 25 °C): 148 ± 43 RU; Rmax, H1N1 Neuraminidase [7]: 74 ± 13 RU
CCCCCCCCCCOCC1OC(CCCSC2(C(=O)O)CC(O)C(NC(C)=O)C(C(O)C(O)CO)O2)C=CC1OCCCCCCCCCC (centres unmarked) [Compound 18a]	20 ^d µM	> 100 µM	> 100 µM	> 100 µM	> 100 µM	> 100 µM	> 100 µM	10 µM		
CCCCCCCCOC1C(OC)OC(COCCOCCOCCOCCn2cc(CSC3(C(=O)O)CC(O)C(NC(C)=O)C(C(O)C(O)CO)O3)nn2)C(OCc2ccc(OC)cc2)C1OCCCCCCCC (centres unmarked) [Compound 12b]	39 ± 20 µM	8.7 ± 3.6 µM	8.9 µM	15 ± 5 µM	8.9 µM	> 100 µM	> 100 µM	34 ± 13 µM	effective; also recorded: moderate effect	Rmax, H1N1 hemagglutinin, absence of DMSO ([1]; DMSO-free running buffer): 305 ± 30 RU; Kd [1, 21]: 161 ± 20 µM; Kd [1, 13]: 187 ± 41 µM; Rmax, H1N1 Hemagglutinin ([1]; PBST with 5% DMSO, 25 °C): 130 ± 12 RU; Rmax, H3N2 hemagglutinin, absence of DMSO ([3]; DMSO-free running buffer): 454 ± 39 RU; Kd [3, 22]: 124 ± 21 µM; Kd [3, 14]: 279 ± 98 µM; Rmax, H3N2 Hemagglutinin ([3]; PBST with 5% DMSO, 25 °C): 135 ± 11 RU; Rmax, H1N1 Neuraminidase [7]: 175 ± 23 RU; d (average diameter of particles, DLS) [11, 23]: 108 (13.4%) ^a nm; d (average diameter of particles, DLS) [11, 24]: 96 (1.19%) ^a nm; ratio of CC50 to EC50 (selectivity) [9]: ≤ 4 factor
NC(=O)c1ncn([C@@H]2O[C@H](CO)[C@@H](O)[C@H]2O)n1 [Ribavirin, reference compound]		24 ± 4 µM	30 ± 6 µM	25 ± 2 µM	24 ± 6 µM	5.4 µM	10 ± 4 µM	> 250 µM		
CCCCOC1C(OC)OC(COCCOCCOCCOCCn2cc(CSC3(C(=O)O)CC(O)C(NC(C)=O)C(C(O)C(O)CO)O3)nn2)C(OCc2ccc(OC)cc2)C1OCCCC (centres unmarked) [Compound 12c]	100 ± 0 µM	> 100 µM	> 100 µM	> 100 µM	> 100 µM	> 100 µM	> 100 µM	> 100 µM		d (average diameter of particles, DLS) [11, 23]: 111 (14.2%) ^a nm; d (average diameter of particles, DLS) [11, 24]: 103 (28.3%) ^a nm
CCCCCCCCCCOC1C(OC)OC(COCCOCCOCCOCCn2cc(CSC3(C(=O)O)CC(O)C(NC(C)=O)C(C(O)C(O)CO)O3)nn2)C(OCc2ccc(OC)cc2)C1OCCCCCCCCCC (centres unmarked) [Compound 12a]	20 ^d µM	> 100 µM	> 100 µM	> 100 µM	> 100 µM	> 100 µM	> 100 µM	64 µM		d (average diameter of particles, DLS) [11, 23]: 170 (15.8%) ^a nm; d (average diameter of particles, DLS) [11, 24]: 126 (2.00%) ^a nm
COC1(C(=O)O)CC(O)C(NC(C)=O)C(C(O)C(O)CO)O1 (stereo not drawn) [methyl β-glycoside]										binding to hemagglutinin (in words) [10]: does not bind at all
CC(=O)NC1C(OC(=O)CNS(=O)(=O)c2cccc3c(N(C)C)cccc23)CC(OCCCCCCC(=O)NCc2cccc3ccccc23)(C(=O)O)OC1C(O)C(O)CO (centres unmarked) [Compound 2]										affinity for hemagglutinin (in words) [10]: high affinity; substrate for viral neuraminidase (in words) [12]: not a substrate
